Tested on: HSSY-II complex spheroid growth, percent test/control
Test: Anticancer human tumor HSSY-II cell line growth inhibition [Asc];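 note: spheroids exposed to drug for 7 days before reading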
Conditions: for IC50: curve of first compound; for viability, T/C: stronger effect = lower value
In short: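 Concentration series start at each agent's clinical Cmax, or at 10 microM when none is established, and drop in half-log steps; agents are applied alone or together to complex spheroids built with HUVEC and hMSC.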

[1] = second compound 0.1 µM, first compound 0.00316 µM
[2] = second compound 0.1 µM, first compound 0.01 µM
[3] = second compound 0.1 µM, first compound 0.0316 µM
[4] = second compound 0.1 µM, first compound 0.1 µM
[5] = second compound 0.316 µM, first compound 0.00316 µM
[6] = second compound 0.316 µM, first compound 0.01 µM
[7] = second compound 0.316 µM, first compound 0.0316 µM
[8] = second compound 0.316 µM, first compound 0.1 µM
[9] = second compound 1 µM, first compound 0.00316 µM
[10] = second compound 1 µM, first compound 0.01 µM
[11] = second compound 1 µM, first compound 0.0316 µM
[12] = second compound 1 µM, first compound 0.1 µM
[13] = second compound 3.16 µM, first compound 0.00316 µM
[14] = second compound 3.16 µM, first compound 0.01 µM
[15] = second compound 3.16 µM, first compound 0.0316 µM
[16] = second compound 3.16 µM, first compound 0.1 µM
[17] = second compound 10 µM, first compound 0.00316 µM
[18] = second compound 10 µM, first compound 0.01 µM
[19] = second compound 10 µM, first compound 0.0316 µM
[20] = second compound 10 µM, first compound 0.1 µM

## NC(=O)C(=Cn1cnc(-c2cc(C(F)(F)F)cc(C(F)(F)F)c2)n1)c1cncnc1 + Cc1c(S(C)(=O)=O)c(-c2cc(F)cc(N3CCN(c4ccc(NS(=O)(=O)c5ccc(NC(CCN6CCC(C(=O)OCCCP(=O)(O)O)CC6)CSc6ccccc6)c(S(=O)(=O)C(F)(F)F)c5)cc4)CC3)c2)c(-c2ccc(Cl)cc2)n1C(C)C
Second compound 0.1 µM
  IC50: 17.9 nM
Second compound 0.316 µM
  IC50: 18.3 nM
Second compound 1 µM
  IC50: 13.6 nM
Second compound 3.16 µM
  IC50: 15.1 nM
Second compound 10 µM
  IC50: 13.3 nM
Second compound 0.1 µM, first compound 0.000949 µM
  viability, T/C: 87.7%
Second compound 0.1 µM, first compound 0.003 µM
  viability, T/C: 86%
Second compound 0.1 µM, first compound 0.00949 µM
  viability, T/C: 65.4%
Second compound 0.1 µM, first compound 0.03 µM
  viability, T/C: 37.4%
Second compound 0.1 µM, first compound 0.0949 µM
  viability, T/C: 9.64%
Second compound 0.1 µM, first compound 0.3 µM
  viability, T/C: 0.51%
Second compound 0.316 µM, first compound 0.000949 µM
  viability, T/C: 99.8%
Second compound 0.316 µM, first compound 0.003 µM
  viability, T/C: 83.5%
Second compound 0.316 µM, first compound 0.00949 µM
  viability, T/C: 71.9%
Second compound 0.316 µM, first compound 0.03 µM
  viability, T/C: 36.1%
Second compound 0.316 µM, first compound 0.0949 µM
  viability, T/C: 6%
Second compound 0.316 µM, first compound 0.3 µM
  viability, T/C: 0.34%
Second compound 1 µM, first compound 0.000949 µM
  viability, T/C: 96.1%
Second compound 1 µM, first compound 0.003 µM
  viability, T/C: 80%
Second compound 1 µM, first compound 0.00949 µM
  viability, T/C: 61.3%
Second compound 1 µM, first compound 0.03 µM
  viability, T/C: 30%
Second compound 1 µM, first compound 0.0949 µM
  viability, T/C: 5.9%
Second compound 1 µM, first compound 0.3 µM
  viability, T/C: 0.23%
Second compound 3.16 µM, first compound 0.000949 µM
  viability, T/C: 91.1%
Second compound 3.16 µM, first compound 0.003 µM
  viability, T/C: 84.3%
Second compound 3.16 µM, first compound 0.00949 µM
  viability, T/C: 68.1%
Second compound 3.16 µM, first compound 0.03 µM
  viability, T/C: 24%
Second compound 3.16 µM, first compound 0.0949 µM
  viability, T/C: 2.17%
Second compound 3.16 µM, first compound 0.3 µM
  viability, T/C: 0.24%
Second compound 10 µM, first compound 0.000949 µM
  viability, T/C: 84.9%
Second compound 10 µM, first compound 0.003 µM
  viability, T/C: 89.6%
Second compound 10 µM, first compound 0.00949 µM
  viability, T/C: 56.5%
Second compound 10 µM, first compound 0.03 µM
  viability, T/C: 26.9%
Second compound 10 µM, first compound 0.0949 µM
  viability, T/C: 1.88%
Second compound 10 µM, first compound 0.3 µM
  viability, T/C: 0.28%

## NC1CCC(NC2CC2c2ccccc2)CC1 (stereo not given) + Cc1c(S(C)(=O)=O)c(-c2cc(F)cc(N3CCN(c4ccc(NS(=O)(=O)c5ccc(NC(CCN6CCC(C(=O)OCCCP(=O)(O)O)CC6)CSc6ccccc6)c(S(=O)(=O)C(F)(F)F)c5)cc4)CC3)c2)c(-c2ccc(Cl)cc2)n1C(C)C
Second compound 0.1 µM
  IC50: > 100 nM
Second compound 0.316 µM
  IC50: > 100 nM
Second compound 1 µM
  IC50: > 100 nM
Second compound 3.16 µM
  IC50: > 100 nM
Second compound 10 µM
  IC50: > 100 nM
Second compound 0.1 µM, first compound 0.000316 µM
  viability, T/C: 58.9%
Second compound 0.1 µM, first compound 0.001 µM
  viability, T/C: 69.2%
[1]
  viability, T/C: 64%
[2]
  viability, T/C: 56.5%
[3]
  viability, T/C: 60.3%
[4]
  viability, T/C: 66.5%
Second compound 0.316 µM, first compound 0.000316 µM
  viability, T/C: 77%
Second compound 0.316 µM, first compound 0.001 µM
  viability, T/C: 67.3%
[5]
  viability, T/C: 58.9%
[6]
  viability, T/C: 60.6%
[7]
  viability, T/C: 60%
[8]
  viability, T/C: 64.5%
Second compound 1 µM, first compound 0.000316 µM
  viability, T/C: 70.3%
Second compound 1 µM, first compound 0.001 µM
  viability, T/C: 60.8%
[9]
  viability, T/C: 57.5%
[10]
  viability, T/C: 59%
[11]
  viability, T/C: 60.6%
[12]
  viability, T/C: 62.8%
Second compound 3.16 µM, first compound 0.000316 µM
  viability, T/C: 73.1%
Second compound 3.16 µM, first compound 0.001 µM
  viability, T/C: 62.1%
[13]
  viability, T/C: 60.8%
[14]
  viability, T/C: 61.1%
[15]
  viability, T/C: 59.9%
[16]
  viability, T/C: 61.4%
Second compound 10 µM, first compound 0.000316 µM
  viability, T/C: 66%
Second compound 10 µM, first compound 0.001 µM
  viability, T/C: 66.5%
[17]
  viability, T/C: 70.2%
[18]
  viability, T/C: 57.9%
[19]
  viability, T/C: 62.3%
[20]
  viability, T/C: 66.6%

## O=C(c1ccc(F)c(F)c1Nc1ccc(I)cc1F)N1CC(O)([C@@H]2CCCCN2)C1 + Cc1c(S(C)(=O)=O)c(-c2cc(F)cc(N3CCN(c4ccc(NS(=O)(=O)c5ccc(NC(CCN6CCC(C(=O)OCCCP(=O)(O)O)CC6)CSc6ccccc6)c(S(=O)(=O)C(F)(F)F)c5)cc4)CC3)c2)c(-c2ccc(Cl)cc2)n1C(C)C
Second compound 0.1 µM
  IC50: 566 nM
Second compound 0.316 µM
  IC50: 575 nM
Second compound 1 µM
  IC50: 576 nM
Second compound 3.16 µM
  IC50: 511 nM
Second compound 10 µM
  IC50: 563 nM
[1]
  viability, T/C: 97.4%
[2]
  viability, T/C: 111%
[3]
  viability, T/C: 106%
[4]
  viability, T/C: 112%
Second compound 0.1 µM, first compound 0.316 µM
  viability, T/C: 77.6%
Second compound 0.1 µM, first compound 1 µM
  viability, T/C: 22.9%
[5]
  viability, T/C: 110%
[6]
  viability, T/C: 107%
[7]
  viability, T/C: 99.5%
[8]
  viability, T/C: 117%
Second compound 0.316 µM, first compound 0.316 µM
  viability, T/C: 79.3%
Second compound 0.316 µM, first compound 1 µM
  viability, T/C: 22.9%
[9]
  viability, T/C: 115%
[10]
  viability, T/C: 110%
[11]
  viability, T/C: 114%
[12]
  viability, T/C: 110%
Second compound 1 µM, first compound 0.316 µM
  viability, T/C: 81.8%
Second compound 1 µM, first compound 1 µM
  viability, T/C: 20.8%
[13]
  viability, T/C: 107%
[14]
  viability, T/C: 101%
[15]
  viability, T/C: 105%
[16]
  viability, T/C: 98.7%
Second compound 3.16 µM, first compound 0.316 µM
  viability, T/C: 71.8%
Second compound 3.16 µM, first compound 1 µM
  viability, T/C: 19.6%
[17]
  viability, T/C: 96.2%
[18]
  viability, T/C: 96.4%
[19]
  viability, T/C: 104%
[20]
  viability, T/C: 104%
Second compound 10 µM, first compound 0.316 µM
  viability, T/C: 81.7%
Second compound 10 µM, first compound 1 µM
  viability, T/C: 18.1%

— PubChem BioAssay AID1963444 (Molecular Pharmacology Branch, DTP, NCI, 2024)
